According to US10011570B2, “Nucleic acid binding dyes with improved safety” (Biotium, Inc., priority 2013, dated 2018):

Columns and labels:
[1] = test system: 1 kb DNA ladder in 1% agarose gel; experiment: Post staining of agarose gels; conditions: 0.65 uM dye in water, 30 minutes, 1 kb DNA ladder 200-25 ng per lane
Protocol: Two-fold dilutions of 1 kb DNA ladder (Biotium, 200 ng-25 ng) or low-molecular weight DNA ladder (NEB, 50-12.5 ng/lane) were separated on 1% agarose/1×TBE gels in 1× TBE at 110 V for 90 minutes. Gels were post-stained with dyes at indicated concentrations in 50 mL staining solution with rocking for 30 minutes at room temperature, protected from light. The staining solutions were prepared by adding a dye stock solution in DMSO to water. […] In particular, dyes of the invention can readily penetrate dense polyacrylamide gels. […] Use of low dye concentration in the staining, coupled with the dyes' low cell membrane permeability (See below), makes the dyes safer to handle. Compound 25 of U.S. Pat. No. 7,446,202 is an asymmetric cyanine dye comprising a negatively charged substituent. The dye is described to be a sensitive dsDNA binding dye useful for selective dsDNA quantitation in solution. In this experiment, this dye is compared with the asymmetric cyanine dye Dye No. 4 of the present invention in detecting dsDNA in agarose gel. 1 kb DNA ladder (Biotium) was loaded on a 1% agarose/1×TBE gel at 200, 100, 50, or 25 ng per lane in duplicate and separated by electrophoresis at 100V. […]

HeLa cells = experiment: Live cell staining (cell membrane permeability, confocal microscopy); format: cell-based, human; conditions: for cell staining after 5 minutes incubation / cell staining after 30 minutes incubation: HeLa cells, 37 C, dyes at 0.65 uM, Sybr Safe at 1×; for cellular staining of live cells (cell membrane permeability): normal working concentration used in gel staining, time not stated (FIG. 12)
Protocol: Dye No. 4, Dye No. […] and SYBR Safe are tested for their cell membrane permeability. HeLa cells were incubated with 1× Sybr Safe, 0.65 uM Dye No 4 and 0.65 uM Dye No. 11 in cell culture medium at 37 C. Hoechst 33342 (1 ug/mL) was included to stain DNA with blue fluorescence. Cells were imaged after 5 minutes and 30 minutes incubation on the appropriate fluorescence channel (FITC for Sybr Safe and Dye No. 4, and Cy3 for Dye No. […]) on a Zeiss LSM 700 confocal microscope. […] Hoechst staining for the same microscopic field is shown below each image (D-F, J-L).

Calf Thymus DNA; RNA = experiment: Nucleic acid detection in solution (fluorescence titration); format: binding; conditions: 2 uM Dye No. 4 or 1.3 uM Compound 25 in TE buffer, fluorescence microplate reader
Protocol: Compound 25 of U.S. Pat. No. 7,446,202 and Dye No. 4 were compared in nucleic acid detection in solution. Calf Thymus DNA (Sigma) was used to titrate 2 uM Dye No. 4 or 1.3 uM Compound 25 of U.S. Pat. No. 7,446,202 in TE buffer. The fluorescence of the solution was measured on a fluorescence microplate reader (200 uL volume/well and 5 minutes incubation time). Same optical setting was used for both dyes as the two dyes have nearly identical spectral profile.

[2] = test system: Pimephales promelas (Fathead minnow); experiment: California Title 22 toxicity test for hazardous waste characterization; format: in vivo; conditions: 0.65 uM dye solution in water, aquatic life
Protocol: (§1) Stock solutions of Dye No. 11 and Dye No. 4 at 0.65 uM each in water were submitted to Nautilus Environmental (San Diego, Calif.) for California Title 22 toxicity testing for hazardous waste characterization. The solutions were tested at 750, 500, and 250 mg/L plus lab control in Pimephales promelas (Fathead minnow) in two replicates of 10 fish each according to the California Department of Fish and Game 1988 Acute Procedures.

[3] = as above; format: in vivo, Pimephales promelas; conditions: Pimephales promelas (fathead minnow), in vivo; 0.65 uM dye solution in water tested at 750, 500 and 250 mg/L, Fathead minnow; read-out: median lethal concentration (LC50)
Protocol: as §1

[4] = test system: 1 kb DNA ladder in 1% agarose TBE gels; experiment: Prestaining of agarose gels; conditions: dye mixed with DNA in loading buffer, compared with propidium iodide
Protocol: Two-fold dilutions of 1 kb DNA ladder (200 ng-25 ng per lane) were mixed with propidium iodide (PI) or Dye No, 10 in DNA loading buffer at the final concentrations indicated and separated on 1% agarose TBE gels containing no additional DNA dye.

Row | Structure (SMILES) | signal of stained gel compared with Compound 25 [1] | cell staining after 5 minutes incubation (HeLa cells) | cell staining after 30 minutes incubation (HeLa cells) | cellular staining of live cells (cell membrane permeability) (HeLa cells) | nucleic acid binding profile (dsDNA versus RNA) (Calf Thymus DNA; RNA) | classification under CCR Title 22 regulations [2] | LC50 [3] [µg/mL] | brightness in prestaining of gels [4]
1 | C[n+]1c(C=C2C=CN(CCCSCC(N)C(=O)[O-])c3ccccc32)sc2ccccc21.I (stereo not shown) [Dye No. 4] | significantly higher signal | no staining was detectable | no staining was detectable | did not produce any cellular staining at all | binds to both dsDNA and RNA | non-hazardous | > 750 | –
2 | CC[N+](C)(CC)CCC[n+]1c(-c2ccc(S(=O)(=O)[O-])cc2)c2cc(N)ccc2c2ccc(N)cc21.[I-] [Dye No. 10] | – | – | – | – | – | – | – | as bright as PI
3 | C[N+](C)(C)CCC[n+]1c(-c2ccc(S(=O)(=O)[O-])cc2)c2cc(N)ccc2c2ccc(N)cc21.[I-] [Dye No. 11] | – | no staining was detectable | no staining was detectable | did not produce any cellular staining at all | – | non-hazardous | > 750 | –
